This data set is described as follows: Neural retina concentration after intravitreal injection to rats (LC-MS). In kind it is in vivo. To be noted: rat, intravitreal 10 μg/eye. On the procedure:
Experiment 3. Ocular tissue distribution and systematic exposure of Compound A orally administered or intravitreally injected
As experimental animals, male Crl:CD <SD> rats aged 8 weeks {CHARLES RIVER LABORATORIES JAPAN, INC.} were used.
In the vitreous body of each eye of rats, Compound A dissolved or suspended in a base was injected at 10 μg/eye. At 1, 2, 4 and 24 hours after intravitreal injection, neural retina was sampled, and the concentration of Compound A in the neural retina was quantified by LC-MS. Each group included two to three rats <four to six eyeballs>.
Transition of plasma concentration of Compound A orally administered (100 mg/kg) was shown in Table 1, transition of neural retina concentration of Compound A orally administered (100 mg/kg) was shown in Table 2, and transition of neural retina concentration of Compound A intravitreally injected (10 μg/eye) was shown in Table 3.

“And” between values parts separate entries of the source, which are not always exact repeats. Identical values can stand only once. Like-named read-outs stand apart in the source and are kept apart here.

Regarding `C[C@H]1CN(C(=O)CC#N)[C@]12CCN(c1ncnc3[nH]ccc13)C2` [Compound A, 3-[(3S,4R)-3-Methyl-6-(7H-pyrrolo[2,3-d]pyrimidin-4-yl)-1,6-diazaspiro[3.4]octan-1-yl]-3-oxopropanenitrile], the concentration at 1 h by setting is: (male, Crl:CD <SD>, neural retina, other: intravitreal injection, 10 μg/eye, 1 hr, average, read-out: Neural retina concentration of Compound A, Average) 45000 ng/mL; (male, Crl:CD <SD>, neural retina, other: intravitreal injection, 10 μg/eye, 1 hr, individual eye, read-out: Neural retina concentration of Compound A) 39500 ng/mL. Moreover, the concentration at 2 h (male, Crl:CD <SD>, neural retina, other: intravitreal injection, 10 μg/eye, 2 hr, average, read-out: Neural retina concentration of Compound A, Average) is 9690 ng/mL. Under “male, Crl:CD <SD>, neural retina, other: intravitreal injection, 10 μg/eye, 4 hr, average, read-out: Neural retina concentration of Compound A, Average”, the concentration at 4 h amounted to 1550 ng/mL. Moreover, the “Neural retina concentration of Compound A” value reads like this: (1 hr, individual eye) 52.66 µg/mL and 45.53 µg/mL and 42.17 µg/mL; (2 hr, individual eye) 6.28 µg/mL and 13.49 µg/mL and 4.73 µg/mL and 12.71 µg/mL and 15.78 µg/mL and 5.13 µg/mL; (4 hr, individual eye) 2.07 µg/mL and 2.64 µg/mL and 0.27 µg/mL and 1.42 µg/mL and 1.66 µg/mL and 1.26 µg/mL; (24 hr, individual eye) “BLQ (Below the lower limit of quantification (ca. 0.16 μg/g))”.

(Values after patent publication US20160367556A1, “Therapeutic Agent for Ocular Disease or Prophylactic Agent for Ocular Disease” (Japan Tobacco Inc., priority 2013, published 2016).)
